Assay results from the supplement of paper PMC13380429.

Assays:
Conditions in all cases: 72 h
U2OS [1] = experiment: drug sensitivity score (DSS) for viability; higher = more toxic; extreme values may be limits of the assay
Calu-3 [2] = experiment: as above
Caco-2 [3] = experiment: as above
Vero E6 [4] = experiment: as above
HepG2 [5] = experiment: as above
U2OS [6] = experiment: relative viability EC50 (midpoint between 100% and the lowest measured viability); higher = less toxic
Calu-3 [7] = experiment: as above
Caco-2 [8] = experiment: as above
Vero E6 [9] = experiment: as above
HepG2 [10] = experiment: as above
U2OS [11] = experiment: cell viability relative to DMSO; higher = less toxic
Calu-3 [12] = experiment: as above
Caco-2 [13] = experiment: as above
Vero E6 [14] = experiment: as above
HepG2 [15] = experiment: as above

| SMILES | drug sensitivity score (U2OS [1]) | drug sensitivity score (Calu-3 [2]) | drug sensitivity score (Caco-2 [3]) | drug sensitivity score (Vero E6 [4]) | drug sensitivity score (HepG2 [5]) | relative viability EC50 (U2OS [6]) [µM] | relative viability EC50 (Calu-3 [7]) [µM] | relative viability EC50 (Caco-2 [8]) [µM] | relative viability EC50 (Vero E6 [9]) [µM] | relative viability EC50 (HepG2 [10]) [µM] | cell viability (U2OS [11]; 1 nM) [%] | cell viability (U2OS [11]; 10 nM) [%] | cell viability (U2OS [11]; 100 nM) [%] | cell viability (U2OS [11]; 1000 nM) [%] | cell viability (U2OS [11]; 10000 nM) [%] | cell viability (Calu-3 [12]; 1 nM) [%] | cell viability (Calu-3 [12]; 10 nM) [%] | cell viability (Calu-3 [12]; 100 nM) [%] | cell viability (Calu-3 [12]; 1000 nM) [%] | cell viability (Calu-3 [12]; 10000 nM) [%] | cell viability (Caco-2 [13]; 1 nM) [%] | cell viability (Caco-2 [13]; 10 nM) [%] | cell viability (Caco-2 [13]; 100 nM) [%] | cell viability (Caco-2 [13]; 1000 nM) [%] | cell viability (Caco-2 [13]; 10000 nM) [%] | cell viability (Vero E6 [14]; 1 nM) [%] | cell viability (Vero E6 [14]; 10 nM) [%] | cell viability (Vero E6 [14]; 100 nM) [%] | cell viability (Vero E6 [14]; 1000 nM) [%] | cell viability (Vero E6 [14]; 10000 nM) [%] | cell viability (HepG2 [15]; 1 nM) [%] | cell viability (HepG2 [15]; 10 nM) [%] | cell viability (HepG2 [15]; 100 nM) [%] | cell viability (HepG2 [15]; 1000 nM) [%] | cell viability (HepG2 [15]; 10000 nM) [%] |
| --- | --- | --- | --- | --- | --- | --- | --- | --- | --- | --- | --- | --- | --- | --- | --- | --- | --- | --- | --- | --- | --- | --- | --- | --- | --- | --- | --- | --- | --- | --- | --- | --- | --- | --- | --- |
| Cn1cc(-c2ccc3nnc(Sc4ccc5ncccc5c4)n3n2)cn1 [SGX523] | 0 | 0 | 0 | 0 | 0 | > 10 | > 10 | > 10 | > 10 | > 10 | 99 | 98.6 | 101 | 93.4 | 103 | 89 | 97.2 | 102 | 96.5 | 100 | 92.5 | 98.6 | 103 | 107 | 100 | 94.8 | 101 | 94.4 | 98 | 107 | 96.2 | 95.2 | 92.5 | 97.2 | 103 |
| NC[C@@H](O)CC(=O)O [aminohydroxybutyric-acid] | 0 | 0 | 0 | 0 | 0 | > 10 | > 10 | > 10 | > 10 | > 10 | 93.6 | 99.7 | 96.4 | 106 | 102 | 98.4 | 103 | 97.7 | 95.1 | 104 | 92.1 | 91 | 86.2 | 103 | 105 | 98.6 | 91.9 | 93.3 | 92.4 | 102 | 102 | 91.7 | 108 | 97.2 | 104 |
| O[C@H]([C@H](O)[C@@H]1CO1)[C@H]1CO1 [dianhydrogalactitol] | 0 | 0 | 0 | 0 | 0 | > 10 | > 10 | > 10 | > 10 | > 10 | 99.1 | 104 | 97.2 | 100 | 100 | 103 | 107 | 99.3 | 95.4 | 94.2 | 97.4 | 95.8 | 101 | 104 | 95.7 | 97.6 | 96.9 | 93.2 | 97.2 | 99.9 | 99.4 | 101 | 104 | 90.8 | 91.1 |
| N=C(N)NC(=N)NCCc1ccccc1 [phenformin] | 0 | 0 | 0.5 | 0 | 0.3 | > 10 | > 10 | > 10 | > 10 | > 10 | 95.9 | 97.6 | 93.8 | 98.8 | 97.1 | 90.2 | 100 | 96.5 | 98.8 | 102 | 86.7 | 101 | 93.7 | 91.8 | 81.5 | 98.8 | 95.3 | 107 | 98.4 | 96.4 | 106 | 101 | 102 | 98 | 85.8 |
| C[C@@]1(c2cc(-c3cncnc3)c(F)cc2F)CCSC(N)=N1 | 0 | 0 | 0 | 0 | 0 | > 10 | > 10 | > 10 | > 10 | > 10 | 102 | 97.5 | 102 | 97.4 | 100 | 98 | 104 | 102 | 101 | 101 | 98.7 | 92.8 | 92.3 | 95.1 | 99.4 | 105 | 103 | 105 | 101 | 96 | 106 | 112 | 101 | 108 | 97.3 |
| O=C(Nc1ccccc1Br)N[C@@H]1CCN(c2ccc(C(F)(F)F)cn2)C1 | 0 | 0 | 0 | 0 | 0 | > 10 | > 10 | > 10 | > 10 | > 10 | 98.9 | 102 | 97.4 | 104 | 94.7 | 96.1 | 98.5 | 97.1 | 97.4 | 96.8 | 86.7 | 97.2 | 97.9 | 98 | 86.9 | 108 | 100 | 103 | 99.8 | 96.9 | 103 | 106 | 103 | 97.8 | 99.2 |
| O=C(O)c1cc(O)c2c(Cl)cc(Cl)cc2n1 [5,7-dichlorokynurenic-acid] | 0 | 0 | 0 | 0 | 0 | > 10 | > 10 | > 10 | > 10 | > 10 | 96 | 98.2 | 98.2 | 103 | 95.7 | 105 | 99.8 | 98.8 | 110 | 112 | 98.7 | 98.1 | 96.1 | 92.1 | 96.8 | 95.3 | 96.4 | 100 | 98.6 | 98.3 | 96.3 | 99.3 | 106 | 96.5 | 102 |
| CC(=O)N[C@@H](CSSC[C@H](NC(C)=O)C(=O)O)C(=O)O [D-7193] | 0 | 0 | 0 | 0 | 0 | > 10 | > 10 | > 10 | > 10 | > 10 | 95.1 | 96.2 | 98.6 | 98.2 | 101 | 93.5 | 83.4 | 103 | 95.6 | 110 | 100 | 96.1 | 104 | 92 | 100 | 107 | 106 | 100 | 103 | 99.2 | 108 | 88.5 | 108 | 98.9 | 98 |
| N#Cc1cn([C@@H]2O[C@H](CO)[C@@H](O)[C@H]2O)c2ncnc(N)c12 [toyocamycin] | 34.2 | 27.7 | 29.7 | 32.6 | 35.6 | 0.0125 | 0.0244 | 0.0025 | 0.0194 | 0.0098 | 94.5 | 56.7 | 9.5 | 2.5 | 1 | 93 | 73.8 | 27.8 | 14.5 | 9.8 | 94.4 | 35 | 42.8 | 34.9 | 38.6 | 88.1 | 84.4 | 2.2 | 2.8 | 1.8 | 89.1 | 50.3 | 8.3 | -0.4 | 0.1 |
| Oc1ccc2c3c1O[C@H]1[C@@H](O)CC[C@@]4(O)[C@@H](C2)N(CC2CCC2)CC[C@]314 [nalbuphine] | 0 | 0 | 0 | 0 | 0 | > 10 | > 10 | > 10 | > 10 | > 10 | 97.7 | 96.5 | 98.2 | 92.4 | 96.9 | 103 | 95.2 | 95.9 | 117 | 105 | 102 | 102 | 101 | 88.4 | 98.6 | 99.9 | 104 | 95.3 | 102 | 96.5 | 107 | 99.2 | 110 | 95.9 | 91.4 |
| C/C(=C\C(=O)Nc1ccccc1C(=O)O)c1ccc2ccccc2c1 [BIBR-1532] | 0 | 0 | 0 | 0 | 0 | > 10 | > 10 | > 10 | > 10 | > 10 | 93.8 | 96.9 | 95.5 | 93.3 | 103 | 101 | 102 | 98.2 | 108 | 98 | 94.1 | 100 | 103 | 98 | 95.8 | 105 | 99.9 | 97.5 | 103 | 105 | 97.6 | 98 | 94.9 | 110 | 118 |
| CC(C)[C@]12O[C@H]1[C@@H]1O[C@]13[C@]1(O[C@H]1C[C@H]1C4=C(CC[C@@]13C)C(=O)OC4)[C@@H]2O [triptolide] | 38.2 | 27.1 | 29.2 | 35.8 | 39.2 | 0.0063 | 0.0121 | 0.0058 | 0.0108 | 0.0036 | 94 | 34.2 | 1.5 | 1.8 | 2.1 | 108 | 71.5 | 25.8 | 34.9 | 34.2 | 84.5 | 56.5 | 24.7 | 24.7 | 27.6 | 101 | 55.4 | 1.6 | 5.4 | 5.1 | 79.4 | 30 | 4.6 | 7.7 | 6.2 |
| Nc1nc(/C(=C/CC(=O)O)C(=O)N[C@@H]2C(=O)N3C(C(=O)O)=CCS[C@H]23)cs1 [ceftibuten] | 0 | 0 | 0 | 0 | 0 | > 10 | > 10 | > 10 | > 10 | > 10 | 101 | 95 | 100 | 97.8 | 106 | 103 | 99.9 | 102 | 94.6 | 106 | 102 | 102 | 106 | 94.9 | 104 | 99.5 | 104 | 96.1 | 104 | 97.8 | 86.3 | 105 | 99.3 | 95.3 | 91 |
| COc1nccc(-c2c(-c3ccc(F)cc3)ncn2[C@H]2CC[C@H](O)CC2)n1 | 0 | 3.8 | 0 | 0 | 0 | > 10 | > 10 | > 10 | > 10 | > 10 | 95.9 | 102 | 93.5 | 98.7 | 98.8 | 99.5 | 106 | 82.2 | 81.7 | 85.6 | 84.5 | 90.9 | 93.1 | 88.6 | 93.9 | 94.7 | 94.3 | 92.7 | 87.5 | 101 | 98.9 | 97.6 | 103 | 104 | 108 |
